Results on twelve compounds are retold here after PubChem BioAssay (NCI).

SMILES strings stand for the structures.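 Dose response: 5 concentrations. Exposure: 48 h. Format: 96-well plates. Endpoint: linear interpolation; highest concentration if not reached. GI50 marks 50% less growth. TGI marks complete inhibition of growth.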

Some test systems named below: KM12 colon; SK-OV-3 ovarian; M14 melanoma; OVCAR-8 ovarian; IGROV1 ovarian; SK-MEL-2 melanoma; ACHN renal; SNB-75 CNS; MALME-3M melanoma.
Common to all, as to experiment: NCI tumour cell line growth inhibition, 48 h

`COC(=O)/C(=C/c1ccc(OC)cc1)C(C(=O)O)=C1CCCCC1`: the TGI in the experiment on KM12 colon, in the experiment with SK-OV-3 ovarian, in the experiment on M14 melanoma, in the experiment on OVCAR-8 ovarian, in the experiment with IGROV1 ovarian and in the experiment with SK-MEL-2 melanoma was above 100 µM throughout. Moreover, the TGI in the experiment with ACHN renal and in the experiment on SNB-75 CNS was above 100 µM throughout.

Regarding `CCCCCCCCCC(=O)NC(Cc1ccc(O)cc1)C(=O)NCCCNCCCCNCCCNC(=O)[C@@H](N)CCCN=C(N)N` (some centres not stated), the TGI in the experiment on KM12 colon is 61.5 µM; in the experiment with SK-OV-3 ovarian, above 100 µM; in the experiment with M14 melanoma it was above 100 µM; in the experiment on OVCAR-8 ovarian it was above 100 µM; in the experiment with MALME-3M melanoma, 39.7 µM; in the experiment with IGROV1 ovarian, 74.5 µM. The TGI in the experiment with ACHN renal came out at 67 µM.

Take `O=C(O)c1ccc(Nc2nc3nn(Cc4ccccc4)cc3c(=O)s2)cc1`: the TGI in the experiment on KM12 colon, with SK-OV-3 ovarian, in the experiment on M14 melanoma, in the experiment on OVCAR-8 ovarian, with MALME-3M melanoma and in the experiment on IGROV1 ovarian was above 100 µM each time. Further, the TGI with SK-MEL-2 melanoma and in the experiment on ACHN renal was above 100 µM throughout.

On to `COc1cc2c(c(OC)c1OC)-c1ccc(SC)c(=O)cc1C(CC(=O)Oc1cccc(F)c1)C2` (configuration not stated), for which the TGI in the experiment on KM12 colon was 1.14 µM; with SK-OV-3 ovarian it was 16.1 µM; with MALME-3M melanoma it was above 100 µM; with IGROV1 ovarian it was above 100 µM; in the experiment on SK-MEL-2 melanoma, 9.57 µM; with ACHN renal it was above 100 µM.

Turning to `CCC(=O)C(C(=O)CC)c1c(OC(=O)c2ccccc2)ccc(O)c1C(=O)OC`, the TGI in the experiment with KM12 colon, in the experiment on SK-OV-3 ovarian, in the experiment on M14 melanoma, in the experiment with OVCAR-8 ovarian, with IGROV1 ovarian and in the experiment with SK-MEL-2 melanoma was above 100 µM each time. In addition, the TGI in the experiment with ACHN renal and in the experiment with SNB-75 CNS was above 100 µM throughout.

Turning to `COc1ccc2c(c1)[n+](=O)c(C(=O)CC(=O)C(=O)Nc1cccc(C)c1C)c(C)n2[O-]`, the TGI in the experiment with KM12 colon, with SK-OV-3 ovarian, in the experiment with M14 melanoma, in the experiment with OVCAR-8 ovarian, in the experiment with MALME-3M melanoma and in the experiment with IGROV1 ovarian was above 100 µM each time. The TGI with SK-MEL-2 melanoma and in the experiment with ACHN renal was above 100 µM in each case.

Regarding `Cc1cc2c(cc1CO)N1Cc3cc(C)c(CO)cc3N(C2)C1`, the TGI with KM12 colon, in the experiment on SK-OV-3 ovarian, in the experiment with M14 melanoma, in the experiment on OVCAR-8 ovarian, in the experiment on IGROV1 ovarian and in the experiment with SNB-75 CNS was above 100 µM throughout.

Take `CCC[CH2][Sn]([CH2]CCC)([CH2]CCC)[O]C(=O)C(OC)c1ccccc1` (configuration not stated): the GI50 in the experiment with KM12 colon is 0.052 µM; with SK-OV-3 ovarian, 0.122 µM; in the experiment on M14 melanoma it was 0.133 µM; in the experiment with OVCAR-8 ovarian, 0.141 µM; in the experiment with MALME-3M melanoma, 0.112 µM; in the experiment with IGROV1 ovarian, 0.13 µM. Further, the figures for the GI50 in the experiment with ACHN renal and with SNB-75 CNS were 0.129 µM and 0.0824 µM, respectively. Also, the TGI amounted to 0.178 µM in the experiment on KM12 colon; 0.246 µM in the experiment on SK-OV-3 ovarian; 0.263 µM in the experiment with M14 melanoma; 0.272 µM in the experiment with OVCAR-8 ovarian; 0.234 µM in the experiment on MALME-3M melanoma; 0.295 µM with IGROV1 ovarian. The TGI in the experiment on ACHN renal was determined as 0.257 µM; with SNB-75 CNS, 0.513 µM.

`COC(=O)CC(C(C(C)=O)C(=O)OCc1ccccc1)N1C(=O)OC(c2ccccc2)C1c1ccccc1` (configuration not stated): the TGI in the experiment with KM12 colon, in the experiment with SK-OV-3 ovarian, in the experiment on OVCAR-8 ovarian, with MALME-3M melanoma, with IGROV1 ovarian and in the experiment with SK-MEL-2 melanoma was above 100 µM each time. In the experiment with ACHN renal, the TGI is above 100 µM.

Turning to `O=C(NC(=O)c1cn(CCN2CCN(C(=O)NCCCCCCNC(=O)N3CCN(CCn4cc(C(=O)NC(=O)OCc5ccccc5)c(=O)[nH]c4=O)CC3)CC2)c(=O)[nH]c1=O)OCc1ccccc1`, the TGI in the experiment on SK-OV-3 ovarian, in the experiment with M14 melanoma, with OVCAR-8 ovarian, in the experiment on MALME-3M melanoma, in the experiment with IGROV1 ovarian and in the experiment on ACHN renal was above 100 µM in each case. The compound further registered a TGI in the experiment on SNB-75 CNS above 100 µM.

For the compound `COc1cc(C2c3cc4c(cc3[C@@H](N(C)c3ccc(N(C)C)cc3)C3COC(=O)C23)OCO4)cc(OC)c1O` (some centres not stated), the TGI was 21.5 µM with KM12 colon; 43 µM with SK-OV-3 ovarian; 14.5 µM with M14 melanoma; above 59.8 µM with OVCAR-8 ovarian; 31.5 µM with IGROV1 ovarian; 16.9 µM with SK-MEL-2 melanoma. Moreover, the TGI was determined as 18.8 µM in the experiment with ACHN renal and 42.3 µM with SNB-75 CNS.

For `C=C(CO)CC(/C=C(\C)CC/C=C(\C)CCl)OC(C)=O` (configuration not stated), the TGI with KM12 colon, with SK-OV-3 ovarian, in the experiment on M14 melanoma, in the experiment with OVCAR-8 ovarian, with IGROV1 ovarian and with SK-MEL-2 melanoma was above 100 µM each time. Moreover, the TGI in the experiment on ACHN renal and in the experiment on SNB-75 CNS was above 100 µM each time.
